Source: US11738029B2, “Rucaparib particles and uses thereof” (CRITITECH, INC., priority 2021, dated 2023)

How the values were obtained:
Format in all cases: physicochemical
[1] = Solubility testing, shake-flask method; conditions: 24 hours at 20-25° C.
Experimental: The solubility was determined by using a shake-flask method. The drug was added in excess to each solution prepared in duplicate. The vials were placed on a mechanical shaker for 24 hours at 20-25° C. After shaking, solution was removed and filtered through a 0.45 μm PTFE syringe filter and analyzed by UV/Visible spectrophotometry.

[2] = Specific surface area (SSA) by BET sorptometry
Experimental: As used herein, the “specific surface area” is the total surface area of the rucaparib particle per unit of rucaparib mass as measured by the Brunauer-Emmett-Teller (“BET”) isotherm (i.e.: the BET SSA). As will be understood by those of skill in the art, the SSA is determined on a per gram basis and takes into account both agglomerated and non-agglomerated rucaparib particles in the composition. The BET specific surface area test procedure is a compendial method included in both the United States Pharmaceopeia and the European Pharmaceopeia. The rucaparib particles have a specific surface area (SSA) of at least 12 m^2/g. In various further embodiments, the rucaparib particles have a SSA of at least 13 m^2/g, 14 m^2/g, 15 m^2/g, 16 m^2/g, 17 m^2/g, 18 m^2/g, 19 m^2/g, 20 m^2/g, 21 m^2/g, 22 m^2/g, 23 m^2/g, 24 m^2/g, 25 m^2/g, 26 m^2/g, 27 m^2/g, 28 m^2/g, 29 m^2/g, or 30 m^2/g.
(§1) • Particle Size Distribution (PSD) by Laser Diffraction • Imaging by Scanning Electron Microscopy (SEM) • Specific Surface Area (SSA) determination by BET Sorptometry • Crystalline/amorphous phase determination by Powder X-ray Diffraction (PXRD) • Bulk density analysis by modified USP <616>Bulk Density of Powders Method I
Specific Surface Area Surface area analyses were conducted on a Quantachrome NOVAtouch™ LX2 BET Sorptometer. Surface area results can be found in Table 1.

[3] = Particle size distribution (PSD) by laser diffraction, Malvern Mastersizer 3000; conditions: dispersed in ethyl acetate
Experimental: as §1
Particle size analyses were conducted on a Malvern Mastersizer™ 3000 using the Hydro MV™ dispersion unit. A non-validated general PSD method/dispersant method was used to analyze the rucaparib samples. The sample preparation procedure performed was as follows: • Weigh 10 to 20 mg of rucaparib into a 30-mL vial, add 20 mL of ethyl acetate. Disperse the sample by vortexing then sonicating the suspension in an ultrasonic bath for 1 minute. Then transfer the sample suspension to the Malvern Hydro MV™ dispersion unit to obtain obscuration between 5 and 15%.
Particle size distributions can be viewed in Table 1.

[4] = Bulk density analysis by modified USP <616> Bulk Density of Powders Method I (bulk and tapped)
Description: As used herein, the bulk density (not tapped) of a particle is the ratio of the mass to the volume (including the interparticulate void volume) of an untapped powder sample.
As used herein, the tapped density of a particle is obtained by mechanically tapping a graduated cylinder containing the sample until little further volume change is observed.
as §1

## CNCc1ccc(-c2[nH]c3cc(F)cc4c3c2CCNC4=O)cc1 [Rucaparib, (8-fluoro-2-{4-[(methylamino)methyl]phenyl}-1,3,4,5-tetrahydro-6H-azepino[5,4,3-cd]indol-6-one ((1S,4R)-7,7-dimethyl-2-oxobicyclo[2.2.1]hept-1-yl)]
[1]; 25% ethanol
  Concentration of Rucaparib Found: 115 µg/mL
[1]; 25% methanol
  Concentration of Rucaparib Found: 68.8 µg/mL
[1]; 40% ethanol
  Concentration of Rucaparib Found: 394 µg/mL
[1]; 40% methanol
  Concentration of Rucaparib Found: 739 µg/mL
[2]; BET
  Surface Area: 6.59 m^2/gm
[2]; material used in dissolution testing
  specific surface area measurement: 6.59 m2/g
[3]
  PSD - Masterisizer Dv-10: 2.96 μ
  PSD - Masterisizer Dv-50: 13.6 μ
  PSD - Masterisizer Dv-90: 26.8 μ
[4]; not tapped
  Bulk Density: 0.332 gm/cm^3
[4]; tapped
  Tapped Density: 0.427 gm/cm^3
